Our source for the mortality values is patent publication US20250143305A1, “PYRAZOLE COMPOUND AND PEST CONTROL AGENT CONTAINING THE SAME AS ACTIVE INGREDIENT” (MITSUI CHEMICALS CROP & LIFE SOLUTIONS, INC., priority 2022, published 2025).

Format in all cases: in vivo
Assay [1] relates to Sogatella furcifera. Put plainly: Insecticidal test against Sogatella furcifera, spray on rice seedling. The note with it: 144 h, acetone solution sprayed on rice seedling, 10 young larvae, 25° C., after 6 days, read-out: mortality rate. Here is the method: Insecticidal Test Against Sogatella furcifera
(§1) 2.5 ml of an acetone solution prepared to have a predetermined concentration of the test compound was sprayed on a rice (Oryza sativa) seedling, and the rice seedling was transferred to a glass tube in which water was retained. After air drying, 10 young larvae were released into the glass tube, and the glass tube was covered with a sponge stopper. The glass tube was allowed to stand in a thermostatic chamber at 25° C., and the numbers of living insects and dead insects were examined after 6 days.

Assay [2] relates to Nilaparvata lugens. Nature of the assay: Insecticidal test against Nilaparvata lugens, root part of rice seedling immersed. The note with it: 144 h, 2% acetone aqueous solution, 10 young larvae, 25° C., after 6 days, read-out: mortality rate. The method, then:
(§2) Insecticidal Test Against Nilaparvata lugens
12.5 ml of a 2% acetone aqueous solution in which the test compound was adjusted to a predetermined concentration was placed in a container, and a root part of a rice (Oryza sativa) seedling fixed with a sponge and a plastic cylinder was immersed. 10 young larvae were released into the container, and the container was covered with a plastic lid. The container was allowed to stand in a thermostatic chamber at 25° C., and the numbers of living insects and dead insects were examined after 6 days.

Assay [3] concerns Nilaparvata lugens. Nature of the assay: Insecticidal test against Nilaparvata lugens, spray on rice seedling. The note with it: 144 h, acetone solution sprayed on rice seedling, 10 young larvae, 25° C., after 6 days, read-out: mortality rate. The method, then: as §2, §1
Assay [4] relates to Myzus persicae. Put plainly: Insecticidal test against Myzus persicae, spray on radish leaves. The note with it: 120 h, 20% acetone aqueous solution sprayed on radish leaves, 25 young larvae, 25° C., after 5 days, read-out: mortality rate. Here is the method:
(§3) Insecticidal Test Against Myzus persicae
2.5 ml of a 20% acetone aqueous solution prepared to have a predetermined concentration of the test compound was sprayed on the leaves of radish (Raphanus sativus) in which the roots retained water and 25 young larvae were parasitized. After air drying, it was allowed to stand in a thermostatic chamber at 25° C., and the number of living insects and the number of dead insects were examined after 5 days.

For assay [5], the system named is Spodoptera litura. Put plainly: Insecticidal test against Spodopteta litura, cabbage leaf pieces immersed. The note with it: 144 h, 1,000 ppm, cabbage leaf pieces immersed 30 seconds, five 2nd instar larvae, 25° C., after 6 days, read-out: mortality rate. The method, then:
Insecticidal Test Against Spodopteta litura
Cabbage (Brassicae oleracea) leaf pieces were immersed in a chemical solution prepared to have a predetermined concentration of the test compound for 30 seconds, air-dried, then placed in a 7 cm polyethylene cup with a filter paper laid thereon, and five 2nd instar larvae of Spodoptera litura were released. The container was allowed to stand in a thermostatic chamber at 25° C., and the numbers of living insects and dead insects were examined after 6 days.

The test system of assay [6] is Myzus persicae. Nature of the assay: Insecticidal test against Myzus persicae, root part of radish seedling immersed. The settings on record: 120 h, 2% acetone aqueous solution, 25 young larvae, 25° C., after 5 days, read-out: mortality rate. Here is the method:
as §3
12.5 ml of a 2% acetone aqueous solution in which the test compound was adjusted to a predetermined concentration was placed in a container, and a root part of a young radish (Raphanus sativus) seedling that was fixed with a sponge and parasitized with 25 young larvae was immersed. The container was allowed to stand in a thermostatic chamber at 25° C., and the numbers of living insects and dead insects were examined after 5 days.

`CCS(=O)(=O)c1c(-c2cn3cnc(C(F)(F)F)cc3n2)nn(C)c1N` [compound 100, 4-(ethylsulfonyl)-1-methyl-3-(7-(trifluoromethyl)imidazo[1,2-c]pyrimidin-2-yl)-1H-pyrazol-5-amine]: the mortality at 100 ppm in assay [1], in assay [2], in assay [3] and in assay [4] was ≥ 50% each time.
Take `CCSc1c(-c2cn3cnc(C(F)(F)F)cc3n2)nn(C)c1N(C)C(=O)OC(C)(C)C` [compound 28, t-butyl(4-(ethylthio)-1-methyl-3-(7-(trifluoromethyl)imidazo[1,2-c]pyrimidin-2-yl)-1H-pyrazol-5-yl)(methyl)carbamate]: the mortality at 100 ppm in assay [3] is ≥ 50%.
Take `CCSc1c(-c2cn3cnc(C(F)(F)F)cc3n2)nn(C)c1NC(=O)C(F)(F)F` [compound 27]: the mortality at 100 ppm in assay [1], in assay [3] and in assay [4] was ≥ 50% throughout.
For the compound `CCSc1c(-c2cn3cnc(C(F)(F)F)cc3n2)nn(C)c1NC(=O)OC(C)(C)C` [compound 26, t-butyl(4-(ethylthio)-1-methyl-3-(7-(trifluoromethyl)imidazo[1,2-c]pyrimidin-2-yl)-1H-pyrazol-5-yl)carbamate], the mortality at 100 ppm in assay [1] was ≥ 50%.
For the compound `CCSc1c(-c2cn3cnc(C(F)(F)F)cc3n2)nn(C)c1N(C)C(=O)C(F)(F)F` [compound 30, N-(4-(ethylthio)-1-methyl-3-(7-(trifluoromethyl)imidazo[1,2-c]pyrimidin-2-yl)-1H-pyrazol-5-yl)-2,2,2-trifluoro-N-methylacetamide], the mortality at 100 ppm in assay [1] and in assay [2] was ≥ 50% each time.
On to `CCS(=O)(=O)c1c(-c2cn3cnc(C(F)(F)F)cc3n2)nn(C)c1NC(=O)c1ccccn1` [compound 86, N-(4-(ethylsulfonyl)-1-methyl-3-(7-(trifluoromethyl)imidazo[1,2-c]pyrimidin-2-yl)-1H-pyrazol-5-yl)picolinamide], for which, in assay [5], the mortality at 1000 ppm is ≥ 50%. Moreover, the mortality at 100 ppm in assay [3] and in assay [4] was ≥ 50% throughout.
`CCS(=O)(=O)c1c(-c2nc3cc(C(F)(F)F)ncn3n2)nn(C)c1NC(C)=O` [compound 11, N-(4-(Ethylsulfonyl)-1-methyl-3-(7-(trifluoromethyl)-[1,2,4]triazolo[1,5-c]pyrimidin-2-yl)-1H-pyrazol-5-yl)acetamide]: the mortality at 100 ppm in assay [1], in assay [2], in assay [3] and in assay [4] was ≥ 50% in each case.
`CCSc1c(-c2cn3cnc(C(F)(F)F)cc3n2)nn(C)c1N` [compound 39, 4-(ethylthio)-1-methyl-3-(7-(trifluoromethyl)imidazo[1,2-c]pyrimidin-2-yl)-1H-pyrazol-5-amine]: the mortality at 100 ppm in assay [1], in assay [2], in assay [3] and in assay [4] was ≥ 50% each time.
In the case of `CCS(=O)(=O)c1c(-c2nc3cc(C(F)(F)F)ncn3c2Cl)nn(C)c1NC(=O)C(F)(F)F` [compound 53, N-(3-(3-chloro-7-(trifluoromethyl)imidazo[1,2-c]pyrimidin-2-yl)-4-(ethylsulfonyl)-1-methyl-1H-pyrazol-5-yl)-2,2,2-trifluoroacetamide], the mortality at 100 ppm in assay [1], in assay [2], in assay [3] and in assay [4] was ≥ 50% each time.
Consider `CCSc1c(-c2cn3cnc(C(F)(F)F)cc3n2)nn(C)c1NC` [compound 29, 4-(ethylthio)-N,1-dimethyl-3-(7-(trifluoromethyl)imidazo[1,2-c]pyrimidin-2-yl)-1H-pyrazol-5-amine], for which the mortality at 100 ppm in assay [1] and in assay [3] was ≥ 50% each time.
On to `CCSc1c(-c2cn3cnc(C(F)(F)F)cc3n2)nn(C)c1NC(=O)c1ccccn1` [compound 84, N-(4-(ethylthio)-1-methyl-3-(7-(trifluoromethyl)imidazo[1,2-c]pyrimidin-2-yl)-1H-pyrazol-5-yl)picolinamide], for which, in assay [5], the mortality at 1000 ppm was ≥ 50%. In assay [3], the mortality at 100 ppm was ≥ 50%.
Turning to `CCS(=O)(=O)c1c(-c2cn3cnc(C(F)(F)F)cc3n2)nn(C)c1NC(=O)C(F)(F)F` [compound 1, N-(4-(ethylsulfonyl)-1-methyl-3-(7-(trifluoromethyl)imidazo[1,2-c]pyrimidin-2-yl)-1H-pyrazol-5-yl)-2,2,2-trifluoroacetamide], the mortality at 100 ppm in assay [1], in assay [2], in assay [3], in assay [6] and in assay [4] was ≥ 50% in each case.
Turning to `CCSc1c(-c2nc3cc(C(F)(F)F)ncn3n2)nn(C)c1NC(=O)OC(C)(C)C` [compound 4, t-butyl (4-(ethylthio)-1-methyl-3-(7-(trifluoromethyl)-[1,2,4]triazolo[1,5-c]pyrimidin-2-yl)-1H-pyrazol-5-yl)carbamate], the mortality at 100 ppm in assay [3] is ≥ 50%.
Turning to `CCS(=O)(=O)c1c(-c2nc3cc(C(F)(F)F)ncn3c2Br)nn(C)c1NC(=O)C(F)(F)F` [compound 54, N-(3-(3-bromo-7-(trifluoromethyl)imidazo[1,2-c]pyrimidin-2-yl)-4-(ethylsulfonyl)-1-methyl-1H-pyrazol-5-yl)-2,2,2-trifluoroacetamide], the mortality at 100 ppm in assay [1], in assay [2], in assay [3] and in assay [4] was ≥ 50% in each case.
With `CCSc1c(-c2nc3cc(C(F)(F)F)ncn3n2)nn(C)c1NC(C)=O` [compound 10, N-(4-(ethylthio)-1-methyl-3-(7-(trifluoromethyl)-[1,2,4]triazolo[1,5-c]pyrimidin-2-yl)-1H-pyrazol-5-yl)acetamide], in assay [3], the mortality at 100 ppm is ≥ 50%.
Take `CCSc1c(-c2nc3cc(C(F)(F)F)ncn3n2)nn(C)c1N` [compound 5, 4-(ethylthio)-1-methyl-3-(7-(trifluoromethyl)-[1,2,4]triazolo[1,5-c]pyrimidin-2-yl)-1H-pyrazol-5-amine]: the mortality at 100 ppm in assay [4] was ≥ 50%.
